This is an account of results in patent US20170137417A1 (priority 2014, published 2017).

One may read the chromatographic logP as a lipophilicity value derived from retention on a column. Low values mean lower lipophilicity, high ones higher lipophilicity.

The conditions of this data set: Log P, [a] LC-UV, acidic range.

Experimental: Measurement of Log P values was performed according to EEC directive 79/831 Annex V.A8 by HPLC (High Performance Liquid Chromatography) on reversed phase columns with the following methods:
[a] Log P value is determined by measurement of LC-UV, in an acidic range, with 0.1% formic acid in water and acetonitrile as eluent (linear gradient from 10% acetonitrile to 95% acetonitrile).
Calibration was done with straight-chain alkan2-ones (with 3 to 16 carbon atoms) with known Log P values (measurement of Log P values using retention times with linear interpolation between successive alkanones).

The compound `C#CCOc1ccc(F)c(F)c1C1CC(c2csc(C3CCN(C(=O)Nc4cc(C)ccc4C)CC3)n2)=NO1` (stereo not shown) [Example I-3] returned a chromatographic logP of 3.45.
